According to US20200165291A1, “NEUROACTIVE STEROIDS, COMPOSITIONS, AND USES THEREOF” (Sage Therapeutics, Inc., priority 2014, published 2020):

Experiments:
[1] = target: T1, recombinant α1β2γ2 GABAA receptors (Homo sapiens, UniProt P14867+P47870); assay: Patch clamp electrophysiology, QPatch, LTK cells; format: cell-based; conditions: 10 μM test article, GABA EC20 = 2 μM, read-out: GABA (α1β2γ2) Qpatch in Ltk, % efficacy at 10 μM
T1 construct: expressed in transfected cells

[2] = target: T2, recombinant α4β3δ GABAA receptors (Homo sapiens, UniProt P28472+P48169); assay: Patch clamp electrophysiology, manual patch, CHO cells; format: cell-based; conditions: 10 μM test article, GABA EC20 = 2 μM, read-out: GABA (α4β3δ) Manual patch in CHO, % efficacy at 10 μM
T2 construct: expressed in transfected cells; host or cells: CHO cells (transient transfection, Lipofectamine)
T2 sequence (P48169 36-554): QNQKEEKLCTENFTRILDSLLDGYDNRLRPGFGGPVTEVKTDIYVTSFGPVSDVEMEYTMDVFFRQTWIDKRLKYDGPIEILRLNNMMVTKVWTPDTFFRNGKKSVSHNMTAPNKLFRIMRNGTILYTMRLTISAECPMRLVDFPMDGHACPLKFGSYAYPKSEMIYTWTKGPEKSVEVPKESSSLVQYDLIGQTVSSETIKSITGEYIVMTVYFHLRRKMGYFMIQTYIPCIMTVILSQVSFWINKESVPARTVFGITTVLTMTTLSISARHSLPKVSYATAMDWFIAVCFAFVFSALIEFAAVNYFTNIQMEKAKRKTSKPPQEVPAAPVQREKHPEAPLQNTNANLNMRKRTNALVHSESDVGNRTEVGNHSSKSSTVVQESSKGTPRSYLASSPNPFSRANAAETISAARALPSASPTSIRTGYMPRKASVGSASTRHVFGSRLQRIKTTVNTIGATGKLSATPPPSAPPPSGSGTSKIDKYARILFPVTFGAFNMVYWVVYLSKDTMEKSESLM
T2 sequence (P28472 26-473): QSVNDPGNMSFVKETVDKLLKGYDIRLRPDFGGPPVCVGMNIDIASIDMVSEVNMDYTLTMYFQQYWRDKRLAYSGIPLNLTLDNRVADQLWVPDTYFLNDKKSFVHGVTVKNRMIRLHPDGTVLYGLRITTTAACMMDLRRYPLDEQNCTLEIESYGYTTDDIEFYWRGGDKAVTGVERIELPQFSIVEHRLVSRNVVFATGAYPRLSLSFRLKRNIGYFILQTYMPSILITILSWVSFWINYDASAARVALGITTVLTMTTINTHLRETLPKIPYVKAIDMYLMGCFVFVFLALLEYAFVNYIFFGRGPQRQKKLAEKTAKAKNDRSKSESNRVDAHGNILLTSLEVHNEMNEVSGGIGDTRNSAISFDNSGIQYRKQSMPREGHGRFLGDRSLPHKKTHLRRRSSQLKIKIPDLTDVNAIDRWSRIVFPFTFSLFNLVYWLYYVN
T2 sequence (O14764 17-452 partner limits assumed): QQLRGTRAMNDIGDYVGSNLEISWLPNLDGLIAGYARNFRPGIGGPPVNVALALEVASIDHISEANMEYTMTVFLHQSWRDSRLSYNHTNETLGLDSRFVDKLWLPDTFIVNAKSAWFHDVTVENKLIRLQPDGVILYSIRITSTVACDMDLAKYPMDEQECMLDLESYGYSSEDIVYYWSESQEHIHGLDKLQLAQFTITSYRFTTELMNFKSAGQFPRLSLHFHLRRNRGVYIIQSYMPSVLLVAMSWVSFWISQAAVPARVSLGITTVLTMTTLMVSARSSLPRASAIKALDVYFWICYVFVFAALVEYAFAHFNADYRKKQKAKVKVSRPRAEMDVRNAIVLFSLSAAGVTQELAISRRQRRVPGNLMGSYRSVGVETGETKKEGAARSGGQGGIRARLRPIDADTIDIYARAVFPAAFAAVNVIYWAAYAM

male Sprague Dawley rats = assay: Loss of righting reflex in rats; format: in vivo; conditions: Rat IV, 5 mpk
Description: Loss of Righting Reflex in Rats
The plasma pharmacokinetics and a qualitative assessment of sedation were obtained in male Sprague Dawley rats according to the following procedure. Rats were dosed by intravenous bolus dose (60 seconds) via the foot dorsal vein at doses ranging from 5 to 15 mg/kg in an appropriate vehicle. In order to assess sedation, rats were gently restrained by hand to a lateral position for dose administration. […] If the animal was unable to return to an upright position, the time was recorded as the onset of loss of righting reflex (LRR). […] Sluggish or incomplete righting twice consecutively within a 30 second interval qualifies as a loss of righting reflex. After onset of LRR, animals were assessed every 5 minutes in the same manner. Recovery of righting reflex is defined as the ability of a rat to right itself completely within 20 seconds of being placed in dorsal recumbency. The duration of LRR is defined as the time interval between LRR and the return of righting reflex.

[3] = tested on: PTZ-treated male CD-1 mice; assay: Acute PTZ (pentylenetetrazol-induced seizure) method in mice; format: in vivo; conditions: Mus musculus, PO (oral administration), latency to tonic seizures, read-out: Anticonvulsive Effect Dose (minimal effective anticonvulsant dose)
Description: The anticonvulsant effect of test compounds were assessed in the pentylenetetazol-induced seizure assay in mice similar to methods described in Giardina & Gasior (2009) Curr Protoc Pharmacol., Chapter 5. Male CD-1 mice were housed in groups of five under controlled conditions (temperature of 22±2° C. and 12:12 light-dark cycle, lights on at 8:00 am) and water and food were available ad libitum. The mice were housed for 1 week prior to behavioral testing, at which time they weighed 25-35 g. Pentylenetetrazol (PTZ, Sigma) was dissolved in sterile 0.9% saline at a concentration of 12 mg/mL concentration for subcutaneous administration. Test compounds were formulated and administered via oral gavage or intraperitoneal injection at a predetermined time-point (typically 30 or 60 minutes) prior to PTZ injection. All solutions were made fresh and were given in a volume of 10 ml/kg body weight.
Mice were acclimated to the test room for at least 30 min before compound administration. Mice were randomized into at least four test groups (vehicle and at least three doses of the test compound) with 10 mice per group. […] Following the drug pretreatment time the mice were injected s.c. with PTZ (120 mg/kg). Immediately following the PTZ injection, mice were individually placed into observation chambers (25×15×15 cm) and a three-channel timer was started. Each mouse was continuously observed for 30 min and the following behaviors were recorded by observers blinded to the treatments: 1) latency to clonic convulsions that persist for 3 sec and followed by an absence of righting reflex 2) latency to tonic convulsions, characterized by the rigid extension of all four limbs that exceeded a 90 degree angle with the body 3) latency to death 4) number of clonic and tonic convulsions. Data are presented as mean±S.E.M and one-way analysis of variance with Dunnett's or Bonferroni's post-hoc test was used to detect significant differences in latency and number between the vehicle and dose group. p values<0.05 were regarded as statistically significant.

[4] = target: [35S]-TBPS binding, rat brain cortical membranes (GABA receptor complex); assay: [35S]-TBPS binding (steroid inhibition of TBPS binding); conditions: in the presence of 5 μM GABA, read-out: 35S-TBPS Radioligand Displacement
Description: [35S]-t-Butylbicyclophosphorothionate (TBPS) binding assays using rat brain cortical membranes in the presence of 5 μM GABA has been described (Gee et al, J. Pharmacol. Exp. Ther. 1987, 241, 346-353; Hawkinson et al, Mol. Pharmacol. 1994, 46, 977-985; Lewin, A. H et al., Mol. Pharmacol. 1989, 35, 189-194).
Briefly, cortices are rapidly removed following decapitation of carbon dioxide-anesthetized Sprague-Dawley rats (200-250 g). The cortices are homogenized in 10 volumes of ice-cold 0.32 M sucrose using a glass/teflon homogenizer and centrifuged at 1500×g for 10 min at 4° C. The resultant supernatants are centrifuged at 10,000×g for 20 min at 4° C. to obtain the P2 pellets. The P2 pellets are resuspended in 200 mM NaCl/50 mM Na-K phosphate pH 7.4 buffer and centrifuged at 10,000×g for 10 min at 4° C. This washing procedure is repeated twice and the pellets are resuspended in 10 volumes of buffer. Aliquots (100 μL) of the membrane suspensions are incubated with 3 nM [^35S]-TBPS and 5 μL aliquots of test drug dissolved in dimethyl sulfoxide (DMSO) (final 0.5%) in the presence of 5 μM GABA. The incubation is brought to a final volume of 1.0 mL with buffer. Nonspecific binding is determined in the presence of 2 μM unlabeled TBPS and ranged from 15 to 25%. Following a 90 min incubation at room temp, the assays are terminated by filtration through glass fiber filters (Schleicher and Schuell No. 32) using a cell harvester (Brandel) and rinsed three times with ice-cold buffer. Filter bound radioactivity is measured by liquid scintillation spectrometry. Non-linear curve fitting of the overall data for each drug averaged for each concentration is done using Prism (GraphPad). […] The concentration of test compound producing 50% inhibition (IC50) of specific binding and the maximal extent of inhibition (Imax) are determined for the individual experiments with the same model used for the overall data and then the means±SEM.s of the individual experiments are calculated.
Various compounds are or can be screened to determine their potential as modulators of [^35S]-TBPS binding in vitro. These assays are or can be performed in accordance with the above discussed procedures.

T1 sequence (P14867 28-456): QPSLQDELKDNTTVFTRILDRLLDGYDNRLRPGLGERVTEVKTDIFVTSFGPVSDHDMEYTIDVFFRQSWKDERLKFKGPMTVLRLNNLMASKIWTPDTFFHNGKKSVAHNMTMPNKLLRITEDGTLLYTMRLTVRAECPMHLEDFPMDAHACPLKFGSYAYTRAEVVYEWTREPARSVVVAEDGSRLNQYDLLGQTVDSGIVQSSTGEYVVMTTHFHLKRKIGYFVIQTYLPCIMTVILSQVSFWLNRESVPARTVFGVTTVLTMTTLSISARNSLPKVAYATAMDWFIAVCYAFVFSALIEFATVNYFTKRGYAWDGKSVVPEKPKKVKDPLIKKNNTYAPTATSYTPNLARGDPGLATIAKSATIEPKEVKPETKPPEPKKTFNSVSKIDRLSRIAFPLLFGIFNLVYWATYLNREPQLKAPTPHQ
T1 sequence (P47870 25-512 limits assumed): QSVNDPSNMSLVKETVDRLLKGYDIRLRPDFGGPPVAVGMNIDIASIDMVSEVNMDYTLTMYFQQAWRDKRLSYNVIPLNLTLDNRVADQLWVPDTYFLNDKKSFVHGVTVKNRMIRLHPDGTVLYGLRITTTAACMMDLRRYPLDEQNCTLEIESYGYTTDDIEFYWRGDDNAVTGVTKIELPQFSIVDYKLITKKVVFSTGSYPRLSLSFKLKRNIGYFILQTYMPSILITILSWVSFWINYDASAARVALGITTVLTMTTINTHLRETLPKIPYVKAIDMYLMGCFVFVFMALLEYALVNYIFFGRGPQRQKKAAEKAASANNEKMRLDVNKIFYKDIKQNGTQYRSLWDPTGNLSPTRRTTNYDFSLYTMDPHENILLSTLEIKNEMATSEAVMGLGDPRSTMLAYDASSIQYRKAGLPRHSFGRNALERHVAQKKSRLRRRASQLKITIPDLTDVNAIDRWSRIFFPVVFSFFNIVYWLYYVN
T1 sequence (P18507 40-475 partner): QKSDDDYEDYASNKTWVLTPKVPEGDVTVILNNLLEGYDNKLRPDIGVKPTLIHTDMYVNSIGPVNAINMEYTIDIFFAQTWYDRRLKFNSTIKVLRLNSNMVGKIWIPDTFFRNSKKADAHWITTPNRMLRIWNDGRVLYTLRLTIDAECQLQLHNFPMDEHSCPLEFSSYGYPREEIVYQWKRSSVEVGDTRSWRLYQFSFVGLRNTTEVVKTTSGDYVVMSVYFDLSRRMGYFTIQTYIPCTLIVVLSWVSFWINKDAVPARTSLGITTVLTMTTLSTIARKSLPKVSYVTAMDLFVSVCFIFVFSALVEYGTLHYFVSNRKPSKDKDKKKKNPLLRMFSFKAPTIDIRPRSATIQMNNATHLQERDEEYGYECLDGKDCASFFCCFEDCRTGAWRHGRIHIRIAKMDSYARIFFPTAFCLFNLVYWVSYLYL

Row | Structure (SMILES) | Emax at 10 µM [1] [%] | Emax at 10 µM [2] [%] | Duration of Rat LRR (male Sprague Dawley rats) | minimal effective dose [3] [mg/kg] | IC50 [4] [nM]
1 | COC[C@@]1(O)CC[C@H]2[C@@H](CC[C@@H]3[C@@H]2CC[C@]2(C)[C@@H](C(=O)Cn4nnc(C)n4)CC[C@@H]32)C1 [SI-4] | 100 to 500 | 100 to 500 | B (B > 20 min) | ≤ 1 | 
2 | Cc1nnn(CC(=O)[C@H]2CC[C@H]3[C@@H]4CC[C@@H]5C[C@](C)(O)CC[C@@H]5[C@H]4CC[C@]23C)n1 [SA-7] | > 500 | > 500 | B (B > 20 min) | ≤ 1 | 1 to 50
3 | Cc1nnn(CC(=O)[C@H]2CC[C@H]3[C@@H]4CC[C@H]5C[C@](C)(O)CC[C@@H]5[C@H]4CC[C@]23C)n1 [SB-5] | 100 to 500 | > 500 | B (B > 20 min) | ≤ 1 | 
4 | Cc1nnn(CC(=O)[C@H]2CC[C@H]3[C@@H]4C[C@@H](F)[C@H]5C[C@](C)(O)CC[C@@H]5[C@H]4CC[C@]23C)n1 [SV-5] | 100 to 500 | 100 to 500 | B (B > 20 min) | ≤ 1 | 
5 | CC[C@@]1(O)CC[C@H]2[C@H](CC[C@@H]3[C@@H]2CC[C@]2(C)[C@@H](C(=O)Cn4nccn4)CC[C@@H]32)C1 [SE-4] | 100 to 500 | > 500 | A (A ≤ 20 min) |  | 50 to 100
6 | Cc1nnn(CC(=O)[C@H]2CC[C@H]3[C@@H]4CC[C@@H]5C[C@@](O)(CF)CC[C@@H]5[C@H]4CC[C@]23C)n1 [SF-3] | 100 to 500 | 100 to 500 | A (A ≤ 20 min) | ≤ 1 | 
7 | C[C@@]1(O)CC[C@@H]2[C@H]3CC[C@]4(C)[C@@H](C(=O)Cn5nccn5)CC[C@H]4[C@@H]3C[C@@H](F)[C@H]2C1 [SV-2] | 100 to 500 | 100 to 500 | B (B > 20 min) | ≤ 1 | 50 to 100
